What all share (assay): relative viability (nuclei count vs DMSO), 5 days (fraction); higher = more cells survive
Compound in the assay “BI-2536 + Foretinib”: CC[C@@H]1C(=O)N(C)c2cnc(Nc3ccc(C(=O)NC4CCN(C)CC4)cc3OC)nc2N1C1CCCC1 [BI-2536] + COc1cc2c(Oc3ccc(NC(=O)C4(C(=O)Nc5ccc(F)cc5)CC4)cc3F)ccnc2cc1OCCCN1CCOCC1 [Foretinib] (partner 0.25 µM)
The method, boiled down: (§1)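 Each reported value is a median over duplicate plates. It expresses relative viability: treated-well nuclei count divided by vehicle-well nuclei count. Lung cancer cell lines in 1536-well plates were dosed by pin tool a day after seeding, alone with one drug or with a fixed anchor-drug dose plus five library-drug doses (not always all listed) in √10 steps, and nuclei were counted after 5 days.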

Compound in the assay “BI-2536 + Crizotinib”: CC[C@@H]1C(=O)N(C)c2cnc(Nc3ccc(C(=O)NC4CCN(C)CC4)cc3OC)nc2N1C1CCCC1 [BI-2536] + C[C@@H](Oc1cc(-c2cnn(C3CCNCC3)c2)cnc1N)c1c(Cl)ccc(F)c1Cl [Crizotinib] (partner 1 µM)
The method, boiled down: as §1

Compound in the assay “NPK76-II-72-1 + Olaparib”: CC1CC(=O)N(C2=CN=C(N=C2N1C3CCCC3)NC4=C(C=C(C=C4)C(=O)NC5CCN(CC5)C)OC)C [NPK76-II-72-1] + O=C(c1cc(Cc2n[nH]c(=O)c3ccccc23)ccc1F)N1CCN(C(=O)C2CC2)CC1 [Olaparib] (partner 8 µM)
The method, boiled down: as §1

Compound in the assay “NPK76-II-72-1 + AZD7762”: CC1CC(=O)N(C2=CN=C(N=C2N1C3CCCC3)NC4=C(C=C(C=C4)C(=O)NC5CCN(CC5)C)OC)C [NPK76-II-72-1] + NC(=O)Nc1cc(-c2cccc(F)c2)sc1C(=O)N[C@H]1CCCNC1 [AZD7762] (partner 0.2 µM)
The method, boiled down: as §1

Take NCI-H2170: the relative viability was 1.03 with BI-2536 + Foretinib (first compound 0.01 µM); 1.02 in the assay with BI-2536 + Foretinib (first compound 0.03162 µM); 0.799 with BI-2536 + Foretinib (first compound 0.1 µM); 0.219 with BI-2536 + Foretinib (first compound 0.3162 µM); 0.208 with BI-2536 + Foretinib (first compound 1 µM); 1.09 with BI-2536 + Crizotinib (first compound 0.01 µM). The relative viability in the assay with BI-2536 + Crizotinib (first compound 0.03162 µM) turned out to be 1.13; in the assay with BI-2536 + Crizotinib (first compound 0.1 µM), 0.611; with BI-2536 + Crizotinib (first compound 0.3162 µM) it was 0.244; in the assay with BI-2536 + Crizotinib (first compound 1 µM) it was 0.288; in the assay with NPK76-II-72-1 + Olaparib (first compound 0.01 µM), 0.57; with NPK76-II-72-1 + Olaparib (first compound 0.03162 µM), 0.572. The relative viability with NPK76-II-72-1 + Olaparib (first compound 0.1 µM) is 0.666; with NPK76-II-72-1 + Olaparib (first compound 0.3162 µM), 0.381; in the assay with NPK76-II-72-1 + Olaparib (first compound 1 µM) it was 0.656; in the assay with NPK76-II-72-1 + AZD7762 (first compound 0.01 µM), 0.799; with NPK76-II-72-1 + AZD7762 (first compound 0.03162 µM), 0.891; in the assay with NPK76-II-72-1 + AZD7762 (first compound 0.1 µM), 0.892. Also, the relative viability with NPK76-II-72-1 + AZD7762 (first compound 0.3162 µM) worked out at 0.358; with NPK76-II-72-1 + AZD7762 (first compound 1 µM), 0.975.

On to NCI-H2347, for which the relative viability with BI-2536 + Foretinib (first compound 0.01 µM) turned out to be 1.07; with BI-2536 + Foretinib (first compound 0.03162 µM), 0.742; with BI-2536 + Foretinib (first compound 0.1 µM), 0.933; with BI-2536 + Foretinib (first compound 0.3162 µM), 0.311; with BI-2536 + Foretinib (first compound 1 µM), 0.292; with BI-2536 + Crizotinib (first compound 0.01 µM) it was 0.675. Further, the relative viability in the assay with BI-2536 + Crizotinib (first compound 0.03162 µM) was determined as 0.692; with BI-2536 + Crizotinib (first compound 0.1 µM) it was 0.675; in the assay with BI-2536 + Crizotinib (first compound 0.3162 µM), 0.345; with BI-2536 + Crizotinib (first compound 1 µM) it was 0.445; with NPK76-II-72-1 + Olaparib (first compound 0.01 µM), 0.525; with NPK76-II-72-1 + Olaparib (first compound 0.03162 µM) it was 0.632. The relative viability with NPK76-II-72-1 + Olaparib (first compound 0.1 µM) worked out at 0.612; with NPK76-II-72-1 + Olaparib (first compound 0.3162 µM), 0.508; in the assay with NPK76-II-72-1 + Olaparib (first compound 1 µM), 0.658; with NPK76-II-72-1 + AZD7762 (first compound 0.01 µM) it was 0.805; with NPK76-II-72-1 + AZD7762 (first compound 0.03162 µM), 0.755; with NPK76-II-72-1 + AZD7762 (first compound 0.1 µM), 0.646. For the same cell line, the relative viability with NPK76-II-72-1 + AZD7762 (first compound 0.3162 µM) was found to be 0.704; in the assay with NPK76-II-72-1 + AZD7762 (first compound 1 µM), 0.883.

For the cell line NCI-H2405, the relative viability with BI-2536 + Foretinib (first compound 0.01 µM) worked out at 1.05; with BI-2536 + Foretinib (first compound 0.03162 µM) it was 0.731; in the assay with BI-2536 + Foretinib (first compound 0.1 µM), 0.386; with BI-2536 + Foretinib (first compound 0.3162 µM) it was 0.296; with BI-2536 + Foretinib (first compound 1 µM), 0.354; with BI-2536 + Crizotinib (first compound 0.01 µM), 0.807. Besides, the relative viability in the assay with BI-2536 + Crizotinib (first compound 0.03162 µM) is 0.778; with BI-2536 + Crizotinib (first compound 0.1 µM), 0.532; with BI-2536 + Crizotinib (first compound 0.3162 µM), 0.223; with BI-2536 + Crizotinib (first compound 1 µM), 0.312; with NPK76-II-72-1 + Olaparib (first compound 0.01 µM), 0.861; with NPK76-II-72-1 + Olaparib (first compound 0.03162 µM), 0.888. Further, the relative viability was determined as 0.908 with NPK76-II-72-1 + Olaparib (first compound 0.1 µM); 0.858 in the assay with NPK76-II-72-1 + Olaparib (first compound 0.3162 µM); 0.88 with NPK76-II-72-1 + Olaparib (first compound 1 µM); 0.689 with NPK76-II-72-1 + AZD7762 (first compound 0.01 µM); 0.775 with NPK76-II-72-1 + AZD7762 (first compound 0.03162 µM); 0.728 in the assay with NPK76-II-72-1 + AZD7762 (first compound 0.1 µM). Further, the relative viability was 0.746 in the assay with NPK76-II-72-1 + AZD7762 (first compound 0.3162 µM) and 0.705 with NPK76-II-72-1 + AZD7762 (first compound 1 µM).

NCI-H3122: the relative viability with BI-2536 + Foretinib (first compound 0.01 µM) turned out to be 0.969; with BI-2536 + Foretinib (first compound 0.03162 µM), 0.916; with BI-2536 + Foretinib (first compound 0.1 µM) it was 0.488; in the assay with BI-2536 + Foretinib (first compound 0.3162 µM), 0.122; with BI-2536 + Foretinib (first compound 1 µM), 0.118; in the assay with BI-2536 + Crizotinib (first compound 0.01 µM) it was 0.294. Further, the relative viability amounted to 0.272 in the assay with BI-2536 + Crizotinib (first compound 0.03162 µM); 0.242 with BI-2536 + Crizotinib (first compound 0.1 µM); 0.182 with BI-2536 + Crizotinib (first compound 0.3162 µM); 0.199 with BI-2536 + Crizotinib (first compound 1 µM); 0.6 with NPK76-II-72-1 + Olaparib (first compound 0.01 µM); 0.6 with NPK76-II-72-1 + Olaparib (first compound 0.03162 µM). Moreover, the relative viability with NPK76-II-72-1 + Olaparib (first compound 0.1 µM) is 0.722; with NPK76-II-72-1 + Olaparib (first compound 0.3162 µM), 0.653; with NPK76-II-72-1 + Olaparib (first compound 1 µM), 0.589; with NPK76-II-72-1 + AZD7762 (first compound 0.01 µM), 0.88; with NPK76-II-72-1 + AZD7762 (first compound 0.03162 µM), 1; with NPK76-II-72-1 + AZD7762 (first compound 0.1 µM) it was 1.03. The figures for the relative viability in the assay with NPK76-II-72-1 + AZD7762 (first compound 0.3162 µM) and with NPK76-II-72-1 + AZD7762 (first compound 1 µM) were 0.996 and 0.973, respectively.

Take PC-3 [JPC-3]: the relative viability with BI-2536 + Foretinib (first compound 0.01 µM) was found to be 1.06; with BI-2536 + Foretinib (first compound 0.03162 µM) it was 0.914; in the assay with BI-2536 + Foretinib (first compound 0.1 µM), 0.753; with BI-2536 + Foretinib (first compound 0.3162 µM), 0.17; in the assay with BI-2536 + Foretinib (first compound 1 µM) it was 0.187; in the assay with BI-2536 + Crizotinib (first compound 0.01 µM), 1.04. Moreover, the relative viability with BI-2536 + Crizotinib (first compound 0.03162 µM) turned out to be 0.846; with BI-2536 + Crizotinib (first compound 0.1 µM) it was 0.871; with BI-2536 + Crizotinib (first compound 0.3162 µM), 0.33; with BI-2536 + Crizotinib (first compound 1 µM) it was 0.244; with NPK76-II-72-1 + Olaparib (first compound 0.01 µM), 1.12; in the assay with NPK76-II-72-1 + Olaparib (first compound 0.1 µM), 1.09. Also, the relative viability stood at 1.09 in the assay with NPK76-II-72-1 + Olaparib (first compound 0.3162 µM); 1.2 with NPK76-II-72-1 + Olaparib (first compound 1 µM); 0.766 in the assay with NPK76-II-72-1 + AZD7762 (first compound 0.01 µM); 0.738 with NPK76-II-72-1 + AZD7762 (first compound 0.1 µM); 0.917 in the assay with NPK76-II-72-1 + AZD7762 (first compound 0.3162 µM); 0.751 with NPK76-II-72-1 + AZD7762 (first compound 1 µM).

Turning to PC-14, the relative viability in the assay with BI-2536 + Foretinib (first compound 0.01 µM) came to 0.961; in the assay with BI-2536 + Foretinib (first compound 0.03162 µM), 0.93; with BI-2536 + Foretinib (first compound 0.1 µM), 0.895; in the assay with BI-2536 + Foretinib (first compound 0.3162 µM), 0.0827; in the assay with BI-2536 + Foretinib (first compound 1 µM), 0.0753; in the assay with BI-2536 + Crizotinib (first compound 0.01 µM), 0.852. For the same cell line, the relative viability with BI-2536 + Crizotinib (first compound 0.03162 µM) was found to be 0.793; with BI-2536 + Crizotinib (first compound 0.1 µM), 0.792; in the assay with BI-2536 + Crizotinib (first compound 0.3162 µM), 0.116; with BI-2536 + Crizotinib (first compound 1 µM) it was 0.0584; with NPK76-II-72-1 + Olaparib (first compound 0.01 µM), 0.295; with NPK76-II-72-1 + Olaparib (first compound 0.03162 µM), 0.377. The relative viability was 0.384 in the assay with NPK76-II-72-1 + Olaparib (first compound 0.1 µM); 0.267 with NPK76-II-72-1 + Olaparib (first compound 0.3162 µM); 0.32 with NPK76-II-72-1 + Olaparib (first compound 1 µM); 0.356 with NPK76-II-72-1 + AZD7762 (first compound 0.01 µM); 0.312 in the assay with NPK76-II-72-1 + AZD7762 (first compound 0.03162 µM); 0.337 in the assay with NPK76-II-72-1 + AZD7762 (first compound 0.1 µM). Besides, the relative viability with NPK76-II-72-1 + AZD7762 (first compound 0.3162 µM) stood at 0.358; with NPK76-II-72-1 + AZD7762 (first compound 1 µM) it was 0.344.

As for RERF-LC-KJ, the relative viability in the assay with BI-2536 + Foretinib (first compound 0.01 µM) stood at 1; with BI-2536 + Foretinib (first compound 0.03162 µM) it was 0.88; with BI-2536 + Foretinib (first compound 0.1 µM), 0.897; with BI-2536 + Foretinib (first compound 0.3162 µM), 0.189; with BI-2536 + Foretinib (first compound 1 µM) it was 0.213; with BI-2536 + Crizotinib (first compound 0.01 µM), 0.894. The relative viability in the assay with BI-2536 + Crizotinib (first compound 0.03162 µM) stood at 0.711; with BI-2536 + Crizotinib (first compound 0.1 µM), 0.764; with BI-2536 + Crizotinib (first compound 0.3162 µM), 0.174; with BI-2536 + Crizotinib (first compound 1 µM) it was 0.218; with NPK76-II-72-1 + Olaparib (first compound 0.01 µM), 0.903; in the assay with NPK76-II-72-1 + Olaparib (first compound 0.03162 µM), 0.914. In addition, the relative viability with NPK76-II-72-1 + Olaparib (first compound 0.1 µM) came out at 0.908; in the assay with NPK76-II-72-1 + Olaparib (first compound 0.3162 µM) it was 0.901; with NPK76-II-72-1 + Olaparib (first compound 1 µM), 0.905; with NPK76-II-72-1 + AZD7762 (first compound 0.01 µM), 0.938; with NPK76-II-72-1 + AZD7762 (first compound 0.03162 µM), 0.931; with NPK76-II-72-1 + AZD7762 (first compound 0.1 µM), 0.987. For the same cell line, the relative viability with NPK76-II-72-1 + AZD7762 (first compound 0.3162 µM) was determined as 0.763; in the assay with NPK76-II-72-1 + AZD7762 (first compound 1 µM) it was 1.15.

(Values after the supplement of paper PMC10307832.)
